From ChEMBL document CHEMBL1201862, “PubChem BioAssay data set” (2004)
Activity calls are given as the source filed them.

Columns and labels:
Assay type in all cases: functional
[1] = target: Serine/threonine-protein kinase PAK 4 (Homo sapiens, UniProt O96013);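 note: value obtained within a kinome profiling panel in which PAK4 was one of the panel members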
[2] = target: Cyclin-dependent kinase 1 (Homo sapiens, UniProt P06493);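 note: Kinome-wide panel profiling, with the target listed as panel member CDC2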
[3] = target: Non-receptor tyrosine-protein kinase TYK2 (Homo sapiens, UniProt P29597)
[4] = target: Fibroblast growth factor receptor 1 (Homo sapiens, UniProt P11362)
[5] = target: Mitogen-activated protein kinase kinase kinase kinase 2 (Homo sapiens, UniProt Q12851);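 note: measured as one member of a kinome-wide kinase panel, with MAP4K2 as the panel entry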
[6] = target: Protein kinase C delta type (Homo sapiens, UniProt Q05655)
Insulin receptor = Insulin receptor (Homo sapiens, UniProt P06213);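 note: insulin receptor kinase tested as one member of a kinome-wide kinase panel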
[7] = target: Dual specificity tyrosine-phosphorylation-regulated kinase 4 (Homo sapiens, UniProt Q9NR20)
[8] = target: Serine/threonine-protein kinase Nek4 (Homo sapiens, UniProt P51957)
[9] = target: Dual specificity protein kinase CLK2 (Homo sapiens, UniProt P49760)
[10] = target: RAC-gamma serine/threonine-protein kinase (Homo sapiens, UniProt Q9Y243)
[11] = target: Casein kinase I isoform gamma-1 (Homo sapiens, UniProt Q9HCP0);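 note: measured as the CSNK1G1 member of a kinome profiling panel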
[12] = target: Mitogen-activated protein kinase 12 (Homo sapiens, UniProt P53778);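 note: measured as one member of a kinome-wide kinase profiling panel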
[13] = target: Serine/threonine-protein kinase PLK4 (Homo sapiens, UniProt O00444);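 note: PLK4 measured as one member of a kinome-wide kinase profiling panel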
[14] = target: STE20-like serine/threonine-protein kinase (Homo sapiens, UniProt Q9H2G2)
[15] = target: Mast/stem cell growth factor receptor Kit (Homo sapiens, UniProt P10721);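 note: KIT entry within a kinase panel assay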
[16] = target: Glycogen synthase kinase-3 alpha (Homo sapiens, UniProt P49840);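 note: GSK3A result taken from a broad kinome-wide kinase panel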
[17] = target: Serine/threonine-protein kinase MRCK alpha (Homo sapiens, UniProt Q5VT25)
[18] = target: G protein-coupled receptor kinase 5 (Homo sapiens, UniProt P34947); assay: Navigating the Kinome. Panel member name: GPRK5
[19] = target: Serine/threonine-protein kinase Chk1 (Homo sapiens, UniProt O14757);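 note: measured as one member of a kinome-wide kinase profiling panel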
[20] = target: Calcium/calmodulin-dependent protein kinase type 1 (Homo sapiens, UniProt Q14012)
[21] = target: Cyclin-dependent kinase 5 (Homo sapiens, UniProt Q00535);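 note: CDK5 measured as one member of a kinase profiling panel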
Activin receptor type-1 = Activin receptor type-1 (Homo sapiens, UniProt Q04771); assay: Navigating the Kinome. Panel member name: ACVR1
[22] = target: T1, Interleukin-1 receptor-associated kinase 4 (Homo sapiens, UniProt Q9NWZ3)
T1 sequence (Q9NWZ3 whole entry): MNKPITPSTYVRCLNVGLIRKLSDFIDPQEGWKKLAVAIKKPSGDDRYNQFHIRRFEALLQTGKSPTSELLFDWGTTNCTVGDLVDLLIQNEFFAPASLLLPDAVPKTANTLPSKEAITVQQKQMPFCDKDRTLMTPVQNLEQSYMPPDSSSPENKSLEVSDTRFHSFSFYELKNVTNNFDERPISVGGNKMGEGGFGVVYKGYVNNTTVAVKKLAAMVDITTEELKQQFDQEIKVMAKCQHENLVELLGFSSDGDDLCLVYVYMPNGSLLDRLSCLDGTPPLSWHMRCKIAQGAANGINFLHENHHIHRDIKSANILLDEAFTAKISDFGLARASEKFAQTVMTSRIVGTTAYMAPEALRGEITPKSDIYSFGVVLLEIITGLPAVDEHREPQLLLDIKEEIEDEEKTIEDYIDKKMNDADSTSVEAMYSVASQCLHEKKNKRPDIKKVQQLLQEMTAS

[23] = target: ALK tyrosine kinase receptor (Homo sapiens, UniProt Q9UM73);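 note: ALK tested as one member of a kinase panel screen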
[24] = target: Serine/threonine-protein kinase PAK 1 (Homo sapiens, UniProt Q13153)
[25] = target: Serine/threonine-protein kinase D2 (Homo sapiens, UniProt Q9BZL6);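 note: measured against PRKD2 as one member of a kinome-wide kinase profiling panel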

Chain of Dual specificity tyrosine-phosphorylation-regulated kinase 4 (Q9NR20 whole entry): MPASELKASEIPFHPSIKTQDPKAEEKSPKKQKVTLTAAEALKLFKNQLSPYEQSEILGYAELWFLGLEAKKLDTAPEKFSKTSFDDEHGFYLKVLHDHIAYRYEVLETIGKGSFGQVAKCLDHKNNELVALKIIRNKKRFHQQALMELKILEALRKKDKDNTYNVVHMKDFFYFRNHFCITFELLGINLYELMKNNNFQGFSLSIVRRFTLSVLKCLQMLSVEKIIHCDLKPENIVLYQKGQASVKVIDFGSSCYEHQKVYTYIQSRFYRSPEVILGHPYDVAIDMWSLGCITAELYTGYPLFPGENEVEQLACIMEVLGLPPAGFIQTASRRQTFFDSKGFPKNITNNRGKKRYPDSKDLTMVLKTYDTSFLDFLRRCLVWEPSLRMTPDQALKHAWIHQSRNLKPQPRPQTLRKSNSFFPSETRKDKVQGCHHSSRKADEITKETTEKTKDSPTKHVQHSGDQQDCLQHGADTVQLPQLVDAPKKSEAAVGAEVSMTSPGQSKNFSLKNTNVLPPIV
Chain of Serine/threonine-protein kinase PAK 4 (O96013 whole entry): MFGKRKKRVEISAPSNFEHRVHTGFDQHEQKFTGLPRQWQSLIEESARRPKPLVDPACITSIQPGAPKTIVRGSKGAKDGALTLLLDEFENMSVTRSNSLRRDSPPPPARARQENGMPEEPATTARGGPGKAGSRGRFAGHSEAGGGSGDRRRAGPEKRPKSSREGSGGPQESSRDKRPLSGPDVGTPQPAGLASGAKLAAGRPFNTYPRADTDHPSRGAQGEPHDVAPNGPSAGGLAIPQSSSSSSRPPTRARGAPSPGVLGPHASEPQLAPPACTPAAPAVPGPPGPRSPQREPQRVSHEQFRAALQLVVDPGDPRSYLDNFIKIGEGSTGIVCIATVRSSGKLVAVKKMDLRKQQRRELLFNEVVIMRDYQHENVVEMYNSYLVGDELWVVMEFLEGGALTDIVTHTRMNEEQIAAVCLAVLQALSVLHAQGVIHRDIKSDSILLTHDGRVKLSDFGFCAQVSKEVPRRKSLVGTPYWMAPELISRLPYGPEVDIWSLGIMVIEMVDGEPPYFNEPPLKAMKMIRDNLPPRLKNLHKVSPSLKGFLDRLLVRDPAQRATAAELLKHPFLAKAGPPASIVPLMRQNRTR
Chain of Non-receptor tyrosine-protein kinase TYK2 (P29597 whole entry): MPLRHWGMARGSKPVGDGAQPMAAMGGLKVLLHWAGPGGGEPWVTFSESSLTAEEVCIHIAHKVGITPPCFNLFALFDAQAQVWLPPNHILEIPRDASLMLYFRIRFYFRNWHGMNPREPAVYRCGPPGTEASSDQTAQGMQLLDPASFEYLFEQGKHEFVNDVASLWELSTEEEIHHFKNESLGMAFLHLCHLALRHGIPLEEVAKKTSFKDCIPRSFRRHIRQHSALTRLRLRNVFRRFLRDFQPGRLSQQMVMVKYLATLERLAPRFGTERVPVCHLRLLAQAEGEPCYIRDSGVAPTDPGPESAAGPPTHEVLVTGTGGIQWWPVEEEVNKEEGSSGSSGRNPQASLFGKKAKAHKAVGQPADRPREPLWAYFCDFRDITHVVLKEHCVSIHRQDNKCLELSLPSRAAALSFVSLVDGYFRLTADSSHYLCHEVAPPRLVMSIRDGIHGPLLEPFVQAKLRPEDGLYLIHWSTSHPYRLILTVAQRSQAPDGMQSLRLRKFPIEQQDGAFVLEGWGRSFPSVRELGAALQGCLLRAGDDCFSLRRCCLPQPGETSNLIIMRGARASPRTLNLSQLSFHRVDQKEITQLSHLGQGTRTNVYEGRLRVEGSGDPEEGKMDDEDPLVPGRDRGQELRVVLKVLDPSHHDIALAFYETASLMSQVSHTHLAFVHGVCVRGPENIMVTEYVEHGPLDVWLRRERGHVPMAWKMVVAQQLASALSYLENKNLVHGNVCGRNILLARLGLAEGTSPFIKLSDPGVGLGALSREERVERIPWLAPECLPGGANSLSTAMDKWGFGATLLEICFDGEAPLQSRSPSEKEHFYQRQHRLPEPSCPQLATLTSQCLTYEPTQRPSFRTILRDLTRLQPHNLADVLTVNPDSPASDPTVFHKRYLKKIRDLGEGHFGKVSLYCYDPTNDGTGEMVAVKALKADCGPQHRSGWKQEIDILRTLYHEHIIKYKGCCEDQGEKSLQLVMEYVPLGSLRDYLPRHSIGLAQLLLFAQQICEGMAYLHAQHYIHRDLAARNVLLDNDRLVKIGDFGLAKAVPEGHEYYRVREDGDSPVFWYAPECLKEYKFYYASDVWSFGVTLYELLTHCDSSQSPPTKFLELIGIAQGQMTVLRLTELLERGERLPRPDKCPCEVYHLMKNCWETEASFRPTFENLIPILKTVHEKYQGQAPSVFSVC
Chain of STE20-like serine/threonine-protein kinase (Q9H2G2 whole entry): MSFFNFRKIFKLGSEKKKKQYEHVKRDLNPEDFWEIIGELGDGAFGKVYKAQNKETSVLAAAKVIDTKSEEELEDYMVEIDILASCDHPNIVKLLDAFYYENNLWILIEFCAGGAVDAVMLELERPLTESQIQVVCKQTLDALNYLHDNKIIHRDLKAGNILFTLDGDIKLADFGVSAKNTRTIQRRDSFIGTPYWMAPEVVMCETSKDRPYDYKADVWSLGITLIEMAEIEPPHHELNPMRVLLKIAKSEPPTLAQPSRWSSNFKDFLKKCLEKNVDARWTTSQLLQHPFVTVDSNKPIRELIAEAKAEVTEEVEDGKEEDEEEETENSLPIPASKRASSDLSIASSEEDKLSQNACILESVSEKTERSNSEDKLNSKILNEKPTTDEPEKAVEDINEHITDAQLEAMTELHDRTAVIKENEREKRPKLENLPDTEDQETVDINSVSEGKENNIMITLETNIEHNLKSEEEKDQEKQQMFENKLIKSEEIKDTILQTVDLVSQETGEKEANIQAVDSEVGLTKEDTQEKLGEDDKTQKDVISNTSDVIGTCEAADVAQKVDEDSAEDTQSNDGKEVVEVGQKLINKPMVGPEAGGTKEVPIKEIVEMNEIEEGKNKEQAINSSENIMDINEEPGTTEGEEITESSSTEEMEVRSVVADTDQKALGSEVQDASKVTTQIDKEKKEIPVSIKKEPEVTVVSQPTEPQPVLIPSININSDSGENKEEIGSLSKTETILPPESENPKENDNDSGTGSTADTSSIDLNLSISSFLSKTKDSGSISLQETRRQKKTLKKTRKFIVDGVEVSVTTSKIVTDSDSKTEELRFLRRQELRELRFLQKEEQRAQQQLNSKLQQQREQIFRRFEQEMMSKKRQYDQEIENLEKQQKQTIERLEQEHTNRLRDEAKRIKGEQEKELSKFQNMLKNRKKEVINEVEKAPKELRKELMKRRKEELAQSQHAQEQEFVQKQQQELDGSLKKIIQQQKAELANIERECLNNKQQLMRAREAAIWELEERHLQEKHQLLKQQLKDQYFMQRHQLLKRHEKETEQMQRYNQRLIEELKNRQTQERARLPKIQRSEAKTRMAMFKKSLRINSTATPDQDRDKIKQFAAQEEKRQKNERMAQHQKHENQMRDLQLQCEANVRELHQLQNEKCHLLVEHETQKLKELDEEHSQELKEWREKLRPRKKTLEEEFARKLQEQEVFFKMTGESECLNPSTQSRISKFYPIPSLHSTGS
Chain of Serine/threonine-protein kinase PLK4 (O00444 whole entry): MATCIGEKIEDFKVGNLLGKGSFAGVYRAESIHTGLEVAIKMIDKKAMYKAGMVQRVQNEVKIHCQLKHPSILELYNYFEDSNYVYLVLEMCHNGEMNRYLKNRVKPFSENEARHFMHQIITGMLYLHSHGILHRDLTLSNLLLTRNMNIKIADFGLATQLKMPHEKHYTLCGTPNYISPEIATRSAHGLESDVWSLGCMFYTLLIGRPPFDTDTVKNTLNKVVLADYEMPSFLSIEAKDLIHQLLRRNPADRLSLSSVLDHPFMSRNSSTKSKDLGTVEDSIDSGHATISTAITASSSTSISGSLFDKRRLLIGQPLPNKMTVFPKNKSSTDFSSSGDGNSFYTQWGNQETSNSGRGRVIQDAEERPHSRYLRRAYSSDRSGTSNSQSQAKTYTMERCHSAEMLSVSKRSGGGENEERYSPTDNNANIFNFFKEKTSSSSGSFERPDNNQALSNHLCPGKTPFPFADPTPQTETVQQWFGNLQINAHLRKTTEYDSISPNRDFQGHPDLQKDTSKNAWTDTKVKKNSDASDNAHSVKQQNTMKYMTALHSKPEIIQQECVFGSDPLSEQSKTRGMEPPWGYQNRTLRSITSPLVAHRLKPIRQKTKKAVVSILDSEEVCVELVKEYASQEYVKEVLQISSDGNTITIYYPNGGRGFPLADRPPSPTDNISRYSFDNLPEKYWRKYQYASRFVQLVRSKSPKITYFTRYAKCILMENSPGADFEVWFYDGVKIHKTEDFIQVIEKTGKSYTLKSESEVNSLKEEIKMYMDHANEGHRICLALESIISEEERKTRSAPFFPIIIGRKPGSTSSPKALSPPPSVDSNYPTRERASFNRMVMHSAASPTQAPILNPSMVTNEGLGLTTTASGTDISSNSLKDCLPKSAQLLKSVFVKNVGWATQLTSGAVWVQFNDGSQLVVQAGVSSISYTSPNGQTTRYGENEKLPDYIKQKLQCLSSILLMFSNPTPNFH
Chain of Calcium/calmodulin-dependent protein kinase type 1 (Q14012 whole entry): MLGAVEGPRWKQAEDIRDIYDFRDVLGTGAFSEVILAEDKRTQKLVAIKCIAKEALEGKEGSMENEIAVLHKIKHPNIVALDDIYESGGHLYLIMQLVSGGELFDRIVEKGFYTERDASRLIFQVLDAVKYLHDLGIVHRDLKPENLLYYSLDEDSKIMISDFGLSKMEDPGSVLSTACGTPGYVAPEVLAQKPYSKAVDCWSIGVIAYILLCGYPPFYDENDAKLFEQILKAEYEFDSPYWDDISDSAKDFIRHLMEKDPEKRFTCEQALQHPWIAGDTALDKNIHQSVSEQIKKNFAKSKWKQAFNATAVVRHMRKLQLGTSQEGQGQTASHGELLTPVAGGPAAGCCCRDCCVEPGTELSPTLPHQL

SMILES: NNc1cc(N2CCOCC2)nc(OCCc2ccccn2)n1
- Ki [1]: > 5.01 µM (inactive)
- Ki [2]: > 7.94 µM (inactive)
- Ki [3]: 1.58 µM (active)
- Ki [4]: > 3.98 µM (inactive)
- Ki [5]: > 5.01 µM (inactive)
- Ki [6]: > 7.94 µM (inactive)
- Ki (Insulin receptor): > 5.01 µM (inactive)
- Ki [7]: > 7.94 µM (inactive)
- Ki [8]: > 6.31 µM (inactive)
- Ki [9]: > 5.01 µM (inactive)
- Ki [10]: > 10 µM (inactive)
- Ki [11]: > 6.31 µM (inactive)
- Ki [12]: > 6.31 µM (inactive)
- Ki [13]: > 3.98 µM (inactive)
- Ki [14]: > 10 µM (inactive)
- Ki [15]: > 3.98 µM (inactive)
- Ki [16]: > 7.94 µM (inactive)
- Ki [17]: > 10 µM (inactive)
- Ki [18]: > 3.98 µM (inactive)
- Ki [19]: > 7.94 µM (inactive)
- Ki [20]: > 5.01 µM (inactive)
- Ki [21]: > 6.31 µM (inactive)
- Ki (Activin receptor type-1): > 3.98 µM (inactive)
- Ki [22]: 2.51 µM (active)
- Ki [23]: > 6.31 µM (inactive)
- Ki [24]: > 10 µM (inactive)
- Ki [25]: > 10 µM (inactive)
